Data from paper PMC12505902, “Inhibitors of trehalose-6-phosphate synthase activity in fungal pathogens compromise thermal tolerance pathways” (mBio, 2025).

Molecular target: T1, 6xHis-CaTps1 (Candida albicans, UniProt Q92410)
T1 construct: Briefly, the full-length; thrombin cleavage site (pET-28a linker) (N); made in house; host or cells: E. coli BL21(DE3)pLysS
T1 sequence (Q92410 1-478): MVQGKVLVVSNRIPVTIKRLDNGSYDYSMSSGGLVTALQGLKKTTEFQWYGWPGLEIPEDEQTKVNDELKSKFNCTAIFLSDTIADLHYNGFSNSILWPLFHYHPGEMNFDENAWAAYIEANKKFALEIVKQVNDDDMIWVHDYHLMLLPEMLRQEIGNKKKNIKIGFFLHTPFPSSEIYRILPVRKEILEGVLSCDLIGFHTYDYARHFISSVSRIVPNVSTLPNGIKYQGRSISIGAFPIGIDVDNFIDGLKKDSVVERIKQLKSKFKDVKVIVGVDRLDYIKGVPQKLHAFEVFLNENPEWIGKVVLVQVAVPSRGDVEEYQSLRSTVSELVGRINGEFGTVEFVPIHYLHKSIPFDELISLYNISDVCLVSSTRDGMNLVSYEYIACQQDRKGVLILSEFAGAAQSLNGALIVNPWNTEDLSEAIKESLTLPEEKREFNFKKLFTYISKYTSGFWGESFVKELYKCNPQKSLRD
Test: Spectrophotometric-coupled Tps1 enzyme activity assay
Format: biochemical, C. albicans
Conditions: 1 mM 4456dh, 4°C for 16 hours
Procedure: Fig 2 4456dh binds Tps1 and inhibits Tps1 activity. (A) Structure of 4456dh. (B and C) Glo-melt thermal shift assays reveal 4456dh destabilizes 6xHis-CaTps1 (B) and 6xHis-CnTps1 (C). The first derivative of the raw data was used to determine the melting temperature of 1 µM 6xHis-CaTps1 (B) and 1 µM 6xHis-CnTps1 (C) treated without (black) or with 2 mM 4456dh (red). […] The resulting dose-response curves were fitted to a one-site binding model to extract Kd values; the SD was calculated using the Kd values from each independent experiment (n = 3). (F) Tps1 enzyme activity assay with 5 µM 6xHis-CaTps1 (F) and 6xHis-CnTps1 (G) ±1 mM 4456dh. Error bars represent SE. […]
The ability of 4456dh to inhibit the activity of CaTps1 was tested using a spectrophotometric-coupled Tps1 enzyme assay, in which recombinant 6xHis-CaTps1 was incubated with 1 mM 4456dh at 4°C for 16 hours. […] Similarly, the effect of 1 mM 4456dh on 6xHis-CnTps1 activity was determined. […]
82 determined by SDS-PAGE analysis, were pooled and concentrated to 1 mg/mL for downstream […]
93 The data were acquired with MO.Control 1.5.3 (NanoTemper Technologies GmbH). Recorded
94 data were analyzed with MO.Affinity Analysis 2.2.7 (NanoTemper Technologies GmbH). […]
100 2X Glo-melt dye. Thermal denaturation was measured using an RT-PCR thermocycler (BioRad) […]
102 determined by identifying the inflection point of the derivative data. […]

SMILES: Cn1cc(-c2csc(NC(=O)Cc3ccccn3)n2)cn1 [Compound 4456dh]
- reduction of 6xHis-CaTps1 activity: approximately 30%
